What was measured:
[1] = test system: mitochondrial respiratory complex I; assay: Complex I derived oxygen consumption in permeabilized cells; assay type: cell-based, murine; conditions: KPC1242 cell line, 24-hour treatment
Method: Cells were plated to Seahorse XF96 cell culture microplates at 20,000 cells/well. Stock compounds in DMSO were diluted in RPMI medium to a final concentration in […] volume, incubated at 37° C. for 24 hours, centrifuged at 200×g for 2 minutes, and conditioned medium removed and replaced with serum-free RPMI […]. Oxygen consumption (OCR) and extracellular flux (ECAR) were measured after injections of oligomycin (1 mg/mL), dinitrophenol […], rotenone […], and antimycin A […]. Analysis was performed by normalizing OCR and ECAR readouts to vehicle controls. Complex I and II activity were analyzed after permeabilization of the cells.

AsPC-1 cells = assay: TMRE retention (mitochondrial depolarization) by flow cytometry in AsPC-1; assay type: cell-based, human; conditions: AsPC-1, 1 hour treatment
Method: AsPC-1 and HPSC cells were serum-starved overnight, loaded with tetramethylrhodamine ethyl ester (TMRE), and treated for 1 hour with the indicated concentrations of MMe or pCF3-MMe or, as the vehicle control, DMSO. Mitochondrial TMRE retention was measured by flow cytometry. Representative histograms of n=3 of TMRE fluorescence in AsPC-1 (FIG. 4A) and HPSC (FIG. 4B) in response to treatment. […] Total cellular ATP levels were analyzed using a luminescent ATP detection assay of KPC1242 cells treated with MMe (0.7 μM) or pCF3-MMe (3 μM), and changes in ATP levels were assayed (FIG. 4E). Representatives immunoblot analyses of phosphorylated and total AMPK levels (FIG. 4F) and densitometric quantification (FIG. 4G) in KPC1242 cells treated with MMe (0.7 μM) or pCF3-MMe (3 μM). […] Values are mean±SD from 3 biological replicates. Statistical differences in a, c, and e were determined using Student's t-test (*, p<0.05; **, p<0.01; ***, p<0.001, ns: not significant).
TPP-conjugated compounds are known to effectively target the mitochondria of cancer cells. Thus, the efficacy of pCF3-MMe to effectively target the mitochondria of cancer cells was tested and compared to normal cells using tetramethylrhodamine ethyl ester perchlorate (TMRE), a cell-permeant, positively-charged dye that accumulates in active mitochondria, and is released into the cytosol upon mitochondrial damage. […]

C57BL/6J mice = assay: Tolerability in non-tumor-bearing mice; assay type: in vivo; conditions: for tolerability of repeated injection: daily for 5 consecutive days, 25 μg/mouse to 1 mg/mouse
Method: FIGS. 6A-6I show pCF3-MMe inhibits tumor growth with enhanced biosafety relative to MMe. C57BL/6J mice were treated with 1 mg MMe, 1 mg pCF3-MMe, 1 mg MMe, 250 μg MMe, 100 μg MMe, 50 μg MMe, or 25 μg MMe for 6 hours (FIG. 6A) or 5 days (FIG. 6D). Kaplan-Meier survival curve of mice treated for 6 hours (FIG. 6B) or 5 days […], n=3-5. Numbers of mice surviving over time after a single injection (FIG. 6C) or 5 repeated doses (FIG. 6F). Significance was determined using a Mantel-Cox test (*, p<0.05; **, p<0.01). KPC1242 murine pancreatic cancer engrafted mice were treated with 1 mg pCF3-MMe or vehicle 5 days on and 2 days off (FIG. 6G). Tumors isolated from vehicle and treated mice were pictured (FIG. 6H). Tumor volume was measured ex vivo from vehicle and pCF3-MMe-treated mice (FIG. 6I). Values are mean±SD. Significant differences were determined by Student's t-test (*, p<0.05).
With the ability to detect pCF3-MMe in vitro and in vivo in hand, along with anti-tumor properties and decreased toxicity towards non-transformed cells in culture, we next compared the tolerability of pCF3-MMe in mice. Non-tumor-bearing mice received an intraperitoneal injection with decreasing amounts (1 mg, 250 μg, 100 μg, 50 μg, or 25 μg) of unsubstituted MMe or pCF3-MMe. […] […].
Given the strong safety shown from a single injection, further studies were conducted to determine if mice tolerated repeated injection using our published treatment schedule by injecting non-tumor-bearing mice daily for 5 consecutive days with doses ranging from as little as 25 μg/mouse to as much as 1 mg/mouse […] (FIG. 6D). […] Since 1 mg/mouse pCF3-MMe was well tolerated in tumor-free animals, further studies were conducted to test if pCF3-MMe could inhibit tumor growth in vivo. Mice were implanted with murine cancer cells and injected 17 days after engraftment with 1 mg pCF3-MMe (FIG. 6G). […] Taken together, trifluoromethylation of TPP^+ improves the reproducible detection, quantitative measurement, and safety profile of TPP^+-conjugated compounds while retaining potent anti-tumor effects in vivo.

[2] = test system: HPNE and HPSC non-transformed cells; assay: Cell growth (confluence) of normal non-transformed cells; assay type: cell-based, human; conditions: for sensitivity of normal non-transformed cells compared to cancer cells: HPNE, HPSC versus cancer cells
Method: To test the off-target effects of the refined MMe analogs on normal non-transformed cells, the growth of HPNE cells (FIGS. 11A, 11D, and 11G), used as a surrogate for normal pancreatic ductal epithelium, or normal stromal HPSC cells (FIGS. 11B, 11E, and 11H) were measured in increasing concentrations of MMe, pCF3-MMe, or mCF3-MMe and compared to the vehicle control.
(§1) Murine pancreatic cancer cells KPC1242 (David Tuveson, Cold Spring Harbor), human pancreatic cancer cells, Panc-1 (ATCC: CRL-1469), human breast cancer cells MDA-MB-231 (ATCC: CRM-HTB-26), and human pancreatic stellate cells HPSC (Rosa F. Hwang, MD Anderson cancer) were all cultured in DMEM (Gibco ThermoFisher Scientific, Waltham, MA, Cat #11965084) containing 10% v/v fetal bovine serum (Omega Scientific, Inc., Tarzana, CA, Cat #FB-12). Human pancreatic cancer cells AsPC-1 (ATCC: CRL-1682), human ovarian cancer cells OVCAR-8 (NIH: CVCL-1629), and human ovarian cancer cells OVCAR-4 (NIH: CVCL-1627) were all cultured in DMEM (Gibco, Cat #22400089) containing 10% v/v fetal bovine serum (Omega Scientific). Human colon cancer cells HCT-116 (ATCC: CCL-247) were cultured in McCoy's 5A Modified Medium (Gibco, Cat #16600082) containing 10% v/v fetal bovine serum (Omega Scientific). Human pancreatic duct epithelial cells HPNE (ATCC: CRL-4023) were cultured in DMEM and 200 mM L-Glutamine and 7.5% w/v NaCO3 further supplemented with 15% v/v fetal bovine serum, M3-Base A (Incell, San Antonio, TX), 1M D-Glucose (Gibco Cat #J60067.EQE), 100 μg/mL human EGF (Gibco Cat #PHG0313) and 10 mg/mL puromycin (ThermoFisher, Cat #A1113802).

[3] = test system: KPC1242, Panc-1, AsPC-1, HCT-116, MDA-MB-231, OVCAR-4, OVCAR-8 cancer cell lines; assay: Cell growth (IncuCyte confluence) in cancer cell lines; assay type: cell-based, murine, human; conditions: for cell confluency: increasing concentrations 0.1 μM-10 μM, each of the cancer cells
Description: as §1

Structure (SMILES)	complex I derived OCR [1]	TMRE accumulation within the mitochondria (AsPC-1 cells)	tolerability of repeated injection (C57BL/6J mice)	tolerability after a single injection (C57BL/6J mice; single intraperitoneal injection, MMe 250 μg or 1 mg, metformin 1 mg)	sensitivity of normal non-transformed cells compared to cancer cells [2]	cell confluency [3]	mice surviving (C57BL/6J mice; single intraperitoneal injection of 1 mg) [%]	reduction in toxicity to normal cells compared to MMe [2] [fold]	toxic effects towards non-transformed HPNE and HPSC-1 cells ([2]; compared to the parent MMe and the mCF3-MMe analog)	efficacy compared to MMe in several types of cancer [3]
N=C(N)NC(=N)NCCCCCCCCCC[P+](c1ccccc1)(c1ccccc1)c1ccccc1.[Br-] [MMe, 10-[(carbamimidamidomethanimidoyl)amino]decyl-triphenylphosphonium bromide, reference compound]	decreased complex I derived OCR	significantly reduced TMRE accumulation	succumbed to 4-fold lower doses	significant and rapid mortality	more than a log less sensitive	decreased in a concentration-dependent manner				
N=C(N)NC(=N)NCCCCCCCCCC[P+](c1ccc(C(F)(F)F)cc1)(c1ccc(C(F)(F)F)cc1)c1ccc(C(F)(F)F)cc1.[Br-] [pCF3-MMe, (10-(3-carbamimidoylguanidino)decyl)tris(4-(trifluoromethyl)phenyl)phosphonium bromide]	decreased complex I derived OCR	significantly reduced TMRE accumulation	tolerated a 1 mg dose		more than a log less sensitive	decreased in a concentration-dependent manner	100	~10	least toxic effects	only a slight change in efficacy

Reference: US20250042925A1, “Improved Compositions and Methods for Targeting Mitochondria in Cancer Cells” (The Medical College of Wisconsin, Inc., priority 2021, published 2025)
